Legend:
[1] = test system: HEK293T WT cells; test: Click chemistry-based detection of compound ubiquitination in cell lysates; parameters: species or system human; details: for Compound ubiquitination in cells (click chemistry, cell lysates): HEK293T WT, 10 μM or 20 μM
Procedure: Cell lysate-based applications: HEK293T WT or HUWE1 KO cells at ~70% confluency on a 10-cm dish were treated with 10 μM or 20 μM BI8626 derivative 6, 7 or 8 for the indicated times. As indicated in the results section, derivative 8 yielded slightly stronger signal than 6 and was thus used for analyses of the prerequisites of cellular small-molecule ubiquitination. Treatment with 1 μM TAK243 (MedChemExpress) or 10 μM MLN4924 (Sigma-Aldrich) was performed for 1 h, prior to derivative 8 administration. Cells were collected with ice-cold 1 x DPBS, centrifugated, and the cell pellet was resuspended in 300 μL sodium phosphate buffer (pH 7.0) (Jena Bioscience), supplemented with 1% (v/v) NP-40, 3 M urea, 10 mM NEM, 50 μM PR-619, 10 μM MG-132 and protease-phosphatase inhibitor cocktail. After 20 min rotating at 4 °C, the lysate was cleared by centrifugation, the total protein concentration determined with a Pierce BCA Protein Assay Kit, the sample diluted to ~7.5 μg μL^−1 and supplemented with 5 μM IRDye 800CW Azide (LI-COR), a mixture of 2 mM CuSO4/10 mM THPTA (Jena Bioscience) and 100 mM sodium ascorbate. The click chemistry reaction was performed in the dark at 37 °C, shaking at 300 rpm. After 1 h, the reaction was quenched with 40 mM EDTA, diluted 1.2-fold with 10 mM Tris (pH 7.5), 150 mM NaCl and 0.5 mM EDTA. 25 μL Ubiquitin-Trap Magnetic Agarose beads (Proteintech) were added, the mixture was rotated at 4 °C for 80 min, the resin washed 3 x with 10 mM Tris (pH 7.5), 150 mM NaCl, 0.05% (v/v) NP-40, 0.5 mM EDTA and 3 M urea, following protein elution in 40 μL of 1.5 x SDS-loading dye at 95 °C for 5 min. 10 μL were subjected to SDS-PAGE and analyzed by fluorescence scanning (Odyssey CLx; LI-COR) and Coomassie staining.

[2] = biological target: T1, HUWE1^HECT (Homo sapiens, UniProt Q7Z6Z7); test: Analytical SEC / intact protein MS of HUWE1^HECT-driven compound ubiquitination; format: biochemical; details: 20 μM compound; + ATP; WT Ub
T1 construct: the isolated HECT domain of HUWE1 (HUWE1^HECT); made in house
T1 sequence (Q7Z6Z7 3993-4374): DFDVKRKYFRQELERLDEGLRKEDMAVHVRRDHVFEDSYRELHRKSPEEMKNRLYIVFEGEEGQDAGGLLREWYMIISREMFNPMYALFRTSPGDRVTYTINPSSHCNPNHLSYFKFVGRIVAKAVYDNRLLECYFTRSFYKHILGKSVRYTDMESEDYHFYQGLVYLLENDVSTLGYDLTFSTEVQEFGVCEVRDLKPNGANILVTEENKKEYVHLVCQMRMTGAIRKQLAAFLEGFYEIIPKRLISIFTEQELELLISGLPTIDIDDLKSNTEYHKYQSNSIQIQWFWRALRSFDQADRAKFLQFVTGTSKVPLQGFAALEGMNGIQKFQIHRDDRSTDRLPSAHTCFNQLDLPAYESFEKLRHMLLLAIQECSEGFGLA
Procedure: HUWE1^HECT multi-turnover ubiquitination reactions were performed with 500 nM UBA1, 5 μM UBE2L3, 5 μM HUWE1^HECT and 100 μM Ub in 20 mM HEPES (pH 7.5), 100 mM NaCl and 0.5 mM TCEP in the presence of 1 mM ATP and 3 mM MgCl2. After 15 min incubation at 30 °C, the mixture was injected into a Superdex 75 Increase 3.2/300 column (Cytiva), equilibrated in 25 mM HEPES (pH 7.5), 100 mM NaCl, and 0.5 mM TCEP at 4 °C. Chromatograms were analyzed and peaks integrated with Unicorn v.7.9.02440 (Cytiva). Data were plotted with Prism v.9.3.1 (GraphPad).
Intact protein LC/MS: protein molecular weights (MWs) were determined by LC/MS on a nanoflow chromatography system (Dionex U3000 nanoRSLC), hyphenated to a hybrid quadrupole/orbitrap mass spectrometer (Q Exactive HF) with a NanoFlex ion source and controlled by Xcalibur v.2.4 (all Thermo Fisher Scientific). Proteins were dissolved in 2% (v/v) acetonitrile (ACN), 0.1% (v/v) formic acid (FA) to a concentration of 100 fmol μL^−1. For each analysis, 500 fmol were enriched on a pre-column (0.15 ×20 mm, Reprosil-Pur120 C18-AQ 5 μm; Dr. Maisch GmbH) and separated on an analytical RP-C18 column (0.075 mm×200 mm, Reprosil-Pur 120 C18-AQ; 1.9 μm, Dr. Maisch GmbH), using a 23-min linear gradient of 10–80% (v/v) ACN/0.1% (v/v) FA at 300 nl min^−1. MS data were acquired in full MS mode across the 500–1800 m/z-range at a resolution setting of 120,000 FWHM, an AGC target of 1*10e6 and a maximum fill time of 200 ms. Charge state deconvolution and MW representation were performed in Freestyle v.1.9 (Thermo Fisher Scientific), using default settings for high-resolution data.

[3] = biological target: T2, HUWE1^HECT (Homo sapiens, UniProt Q7Z6Z7); test: HUWE1^HECT multi-turnover ubiquitination reactions (fluorescent Ub tracer, SDS-PAGE); format: biochemical; details: 20 μM compound
T2 construct: the isolated HECT domain of HUWE1 (HUWE1^HECT); made in house
T2 sequence (Q7Z6Z7 4038-4374 limits assumed): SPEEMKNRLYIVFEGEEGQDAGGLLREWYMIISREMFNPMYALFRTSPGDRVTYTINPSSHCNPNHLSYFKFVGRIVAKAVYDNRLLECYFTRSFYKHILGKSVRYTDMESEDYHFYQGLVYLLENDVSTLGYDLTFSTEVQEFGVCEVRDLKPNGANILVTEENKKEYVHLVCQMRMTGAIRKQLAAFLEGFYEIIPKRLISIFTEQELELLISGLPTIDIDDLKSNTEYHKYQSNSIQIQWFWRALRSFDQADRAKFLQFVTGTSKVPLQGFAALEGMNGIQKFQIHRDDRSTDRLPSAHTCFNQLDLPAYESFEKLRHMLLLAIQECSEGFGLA
Procedure: (§1) HUWE1^HECT multi-turnover ubiquitination reactions were performed for 30 minutes (unless stated otherwise) with 200 nM UBA1, 5 μM UBE2L3 or UBE2D3 (as specified), 1 μM HUWE1^HECT and 30 μM Ub in 25 mM HEPES (pH 7.5), 100 mM NaCl, 3 mM MgCl2, and 0.5 mM TCEP. HUWE1^FL multi-turnover ubiquitination reactions included 50 nM UBA1, 2.5 μM UBE2L3, 0.05 μM HUWE1^FL, 0.5 μM MCL1 (or 0.5 μM H2B or 1 μM FOXP3) and 20 μM Ub in 20 mM HEPES (pH 7.5), 100 mM NaCl, 3 mM MgCl2, and 0.5 mM TCEP. All multi-turnover reactions were started by the addition of 1 mM ATP, incubated at 30 °C, quenched with SDS-loading dye. If not stated otherwise, HUWE1^FLautoubiquitination reactions were incubated for 20 minutes. Substrate ubiquitination reactions with MCL1 or H2B were incubated for 10 and 20 min, respectively; those with FOXP3 for 30 min. Those reactions that were monitored by fluorescence contained a fluorescent Ub tracer (IRDye 800CW maleimide; LI-COR)[55] and were monitored using an Odyssey CLx scanner (LI-COR), followed by Coomassie staining. In the fluorescence images, only those marker bands are labeled (in kDa) that are visible by fluorescence; all marker bands are labeled in the Coomassie-stained images. Statistical analyses were performed with Prism 9 v.9.3.1 (GraphPad).

[4] = biological target: T3, HUWE1^FL (Homo sapiens, UniProt Q7Z6Z7); test: HUWE1^FL multi-turnover ubiquitination reactions without protein substrate (autoubiquitination, free Ub chains); format: biochemical; details: for Inhibition by derivatives modified at the piperazine-linked benzyl moiety: Supplementary Fig. 18c, d
T3 construct: made in house; host or cells: HEK293T (transient transfection, anti-Flag purification, SEC)
Procedure: as §1

[5] = biological target: T3, HUWE1^FL; test: Click chemistry-based detection of compound ubiquitination by HUWE1^FL in vitro; format: biochemical
Procedure: In vitro applications: Multi-turnover ubiquitination reactions were performed with 50 nM UBA1, 2.5 μM UBE2L3, 50 nM HUWE1^FL and 20 μM Ub in 20 mM HEPES (pH 7.5), 100 mM NaCl, 0.5 mM TCEP, and 20 μM derivative 6 or 7 ± 0.5 μM MCL1 at 30 °C for 10 min. The reactions were started by addition of 1 mM ATP/3 mM MgCl2 and quenched with 3 M urea. Click-chemistry labeling was performed by incubation of the samples with 20 μM IRDye 800CW Azide Infrared Dye (LI-COR), 5 mM CuSO4, 10 mM THPTA and 50 mM sodium ascorbate for 60 min at 37 °C in the dark, following by quenching with 40 mM EDTA. Following SDS-PAGE, the gels were fixed in 10% acetic acid and 30% ethanol for 2 ×15 min and washed in water overnight.

[6] = test system: HEK293T HUWE1 KO cells; test: Click chemistry-based detection of compound ubiquitination in HUWE1 knock-out cells (± HUWE1 overexpression); format: cell-based, human
Procedure: The protocol for CRISPR/Cas9-mediated HUWE1-knockout in HEK293T cells was previously described. In short, two sgRNAs were cloned separately into pX330-U6-Chimeric_BB-CBh-hSpCas9 (a gift from Feng Zhang; http://n2t.net/addgene:42230; RRID:Addgene_42230)[68] and pSpCas9(BB)−2A-GFP (PX458) (a gift from Feng Zhang; http://n2t.net/addgene:48138; RRID:Addgene_48138)[69]. Transfections were performed with Lipofectamine LTX (Thermo Fisher Scientific), single cells FACS-seeded into 96-well plates, and clones derived from single cells screened for HUWE1 deficiency by sequencing and immunoblotting.
Transient transfections of HA-tagged HUWE1^FL WT and C4341S (Fig. 5g) were performed in antibiotic-free and FBS-free media using Lipofectamine 3000 (Thermo Fisher Scientific). 6 h post transfection the media was exchanged to media supplemented with antibiotics and FBS. 24 h post transfection cells were treated with 10 μM or 20 μM BI8626 derivative 8 for 1 h and then collected.
Cell lysate-based applications: HEK293T WT or HUWE1 KO cells at ~70% confluency on a 10-cm dish were treated with 10 μM or 20 μM BI8626 derivative 6, 7 or 8 for the indicated times. As indicated in the results section, derivative 8 yielded slightly stronger signal than 6 and was thus used for analyses of the prerequisites of cellular small-molecule ubiquitination. Treatment with 1 μM TAK243 (MedChemExpress) or 10 μM MLN4924 (Sigma-Aldrich) was performed for 1 h, prior to derivative 8 administration. […] After 20 min rotating at 4 °C, the lysate was cleared by centrifugation, the total protein concentration determined with a Pierce BCA Protein Assay Kit, the sample diluted to ~7.5 μg μL^−1 and supplemented with 5 μM IRDye 800CW Azide (LI-COR), a mixture of 2 mM CuSO4/10 mM THPTA (Jena Bioscience) and 100 mM sodium ascorbate. […] 10 μL were subjected to SDS-PAGE and analyzed by fluorescence scanning (Odyssey CLx; LI-COR) and Coomassie staining.

T3 sequence (Q7Z6Z7 whole entry): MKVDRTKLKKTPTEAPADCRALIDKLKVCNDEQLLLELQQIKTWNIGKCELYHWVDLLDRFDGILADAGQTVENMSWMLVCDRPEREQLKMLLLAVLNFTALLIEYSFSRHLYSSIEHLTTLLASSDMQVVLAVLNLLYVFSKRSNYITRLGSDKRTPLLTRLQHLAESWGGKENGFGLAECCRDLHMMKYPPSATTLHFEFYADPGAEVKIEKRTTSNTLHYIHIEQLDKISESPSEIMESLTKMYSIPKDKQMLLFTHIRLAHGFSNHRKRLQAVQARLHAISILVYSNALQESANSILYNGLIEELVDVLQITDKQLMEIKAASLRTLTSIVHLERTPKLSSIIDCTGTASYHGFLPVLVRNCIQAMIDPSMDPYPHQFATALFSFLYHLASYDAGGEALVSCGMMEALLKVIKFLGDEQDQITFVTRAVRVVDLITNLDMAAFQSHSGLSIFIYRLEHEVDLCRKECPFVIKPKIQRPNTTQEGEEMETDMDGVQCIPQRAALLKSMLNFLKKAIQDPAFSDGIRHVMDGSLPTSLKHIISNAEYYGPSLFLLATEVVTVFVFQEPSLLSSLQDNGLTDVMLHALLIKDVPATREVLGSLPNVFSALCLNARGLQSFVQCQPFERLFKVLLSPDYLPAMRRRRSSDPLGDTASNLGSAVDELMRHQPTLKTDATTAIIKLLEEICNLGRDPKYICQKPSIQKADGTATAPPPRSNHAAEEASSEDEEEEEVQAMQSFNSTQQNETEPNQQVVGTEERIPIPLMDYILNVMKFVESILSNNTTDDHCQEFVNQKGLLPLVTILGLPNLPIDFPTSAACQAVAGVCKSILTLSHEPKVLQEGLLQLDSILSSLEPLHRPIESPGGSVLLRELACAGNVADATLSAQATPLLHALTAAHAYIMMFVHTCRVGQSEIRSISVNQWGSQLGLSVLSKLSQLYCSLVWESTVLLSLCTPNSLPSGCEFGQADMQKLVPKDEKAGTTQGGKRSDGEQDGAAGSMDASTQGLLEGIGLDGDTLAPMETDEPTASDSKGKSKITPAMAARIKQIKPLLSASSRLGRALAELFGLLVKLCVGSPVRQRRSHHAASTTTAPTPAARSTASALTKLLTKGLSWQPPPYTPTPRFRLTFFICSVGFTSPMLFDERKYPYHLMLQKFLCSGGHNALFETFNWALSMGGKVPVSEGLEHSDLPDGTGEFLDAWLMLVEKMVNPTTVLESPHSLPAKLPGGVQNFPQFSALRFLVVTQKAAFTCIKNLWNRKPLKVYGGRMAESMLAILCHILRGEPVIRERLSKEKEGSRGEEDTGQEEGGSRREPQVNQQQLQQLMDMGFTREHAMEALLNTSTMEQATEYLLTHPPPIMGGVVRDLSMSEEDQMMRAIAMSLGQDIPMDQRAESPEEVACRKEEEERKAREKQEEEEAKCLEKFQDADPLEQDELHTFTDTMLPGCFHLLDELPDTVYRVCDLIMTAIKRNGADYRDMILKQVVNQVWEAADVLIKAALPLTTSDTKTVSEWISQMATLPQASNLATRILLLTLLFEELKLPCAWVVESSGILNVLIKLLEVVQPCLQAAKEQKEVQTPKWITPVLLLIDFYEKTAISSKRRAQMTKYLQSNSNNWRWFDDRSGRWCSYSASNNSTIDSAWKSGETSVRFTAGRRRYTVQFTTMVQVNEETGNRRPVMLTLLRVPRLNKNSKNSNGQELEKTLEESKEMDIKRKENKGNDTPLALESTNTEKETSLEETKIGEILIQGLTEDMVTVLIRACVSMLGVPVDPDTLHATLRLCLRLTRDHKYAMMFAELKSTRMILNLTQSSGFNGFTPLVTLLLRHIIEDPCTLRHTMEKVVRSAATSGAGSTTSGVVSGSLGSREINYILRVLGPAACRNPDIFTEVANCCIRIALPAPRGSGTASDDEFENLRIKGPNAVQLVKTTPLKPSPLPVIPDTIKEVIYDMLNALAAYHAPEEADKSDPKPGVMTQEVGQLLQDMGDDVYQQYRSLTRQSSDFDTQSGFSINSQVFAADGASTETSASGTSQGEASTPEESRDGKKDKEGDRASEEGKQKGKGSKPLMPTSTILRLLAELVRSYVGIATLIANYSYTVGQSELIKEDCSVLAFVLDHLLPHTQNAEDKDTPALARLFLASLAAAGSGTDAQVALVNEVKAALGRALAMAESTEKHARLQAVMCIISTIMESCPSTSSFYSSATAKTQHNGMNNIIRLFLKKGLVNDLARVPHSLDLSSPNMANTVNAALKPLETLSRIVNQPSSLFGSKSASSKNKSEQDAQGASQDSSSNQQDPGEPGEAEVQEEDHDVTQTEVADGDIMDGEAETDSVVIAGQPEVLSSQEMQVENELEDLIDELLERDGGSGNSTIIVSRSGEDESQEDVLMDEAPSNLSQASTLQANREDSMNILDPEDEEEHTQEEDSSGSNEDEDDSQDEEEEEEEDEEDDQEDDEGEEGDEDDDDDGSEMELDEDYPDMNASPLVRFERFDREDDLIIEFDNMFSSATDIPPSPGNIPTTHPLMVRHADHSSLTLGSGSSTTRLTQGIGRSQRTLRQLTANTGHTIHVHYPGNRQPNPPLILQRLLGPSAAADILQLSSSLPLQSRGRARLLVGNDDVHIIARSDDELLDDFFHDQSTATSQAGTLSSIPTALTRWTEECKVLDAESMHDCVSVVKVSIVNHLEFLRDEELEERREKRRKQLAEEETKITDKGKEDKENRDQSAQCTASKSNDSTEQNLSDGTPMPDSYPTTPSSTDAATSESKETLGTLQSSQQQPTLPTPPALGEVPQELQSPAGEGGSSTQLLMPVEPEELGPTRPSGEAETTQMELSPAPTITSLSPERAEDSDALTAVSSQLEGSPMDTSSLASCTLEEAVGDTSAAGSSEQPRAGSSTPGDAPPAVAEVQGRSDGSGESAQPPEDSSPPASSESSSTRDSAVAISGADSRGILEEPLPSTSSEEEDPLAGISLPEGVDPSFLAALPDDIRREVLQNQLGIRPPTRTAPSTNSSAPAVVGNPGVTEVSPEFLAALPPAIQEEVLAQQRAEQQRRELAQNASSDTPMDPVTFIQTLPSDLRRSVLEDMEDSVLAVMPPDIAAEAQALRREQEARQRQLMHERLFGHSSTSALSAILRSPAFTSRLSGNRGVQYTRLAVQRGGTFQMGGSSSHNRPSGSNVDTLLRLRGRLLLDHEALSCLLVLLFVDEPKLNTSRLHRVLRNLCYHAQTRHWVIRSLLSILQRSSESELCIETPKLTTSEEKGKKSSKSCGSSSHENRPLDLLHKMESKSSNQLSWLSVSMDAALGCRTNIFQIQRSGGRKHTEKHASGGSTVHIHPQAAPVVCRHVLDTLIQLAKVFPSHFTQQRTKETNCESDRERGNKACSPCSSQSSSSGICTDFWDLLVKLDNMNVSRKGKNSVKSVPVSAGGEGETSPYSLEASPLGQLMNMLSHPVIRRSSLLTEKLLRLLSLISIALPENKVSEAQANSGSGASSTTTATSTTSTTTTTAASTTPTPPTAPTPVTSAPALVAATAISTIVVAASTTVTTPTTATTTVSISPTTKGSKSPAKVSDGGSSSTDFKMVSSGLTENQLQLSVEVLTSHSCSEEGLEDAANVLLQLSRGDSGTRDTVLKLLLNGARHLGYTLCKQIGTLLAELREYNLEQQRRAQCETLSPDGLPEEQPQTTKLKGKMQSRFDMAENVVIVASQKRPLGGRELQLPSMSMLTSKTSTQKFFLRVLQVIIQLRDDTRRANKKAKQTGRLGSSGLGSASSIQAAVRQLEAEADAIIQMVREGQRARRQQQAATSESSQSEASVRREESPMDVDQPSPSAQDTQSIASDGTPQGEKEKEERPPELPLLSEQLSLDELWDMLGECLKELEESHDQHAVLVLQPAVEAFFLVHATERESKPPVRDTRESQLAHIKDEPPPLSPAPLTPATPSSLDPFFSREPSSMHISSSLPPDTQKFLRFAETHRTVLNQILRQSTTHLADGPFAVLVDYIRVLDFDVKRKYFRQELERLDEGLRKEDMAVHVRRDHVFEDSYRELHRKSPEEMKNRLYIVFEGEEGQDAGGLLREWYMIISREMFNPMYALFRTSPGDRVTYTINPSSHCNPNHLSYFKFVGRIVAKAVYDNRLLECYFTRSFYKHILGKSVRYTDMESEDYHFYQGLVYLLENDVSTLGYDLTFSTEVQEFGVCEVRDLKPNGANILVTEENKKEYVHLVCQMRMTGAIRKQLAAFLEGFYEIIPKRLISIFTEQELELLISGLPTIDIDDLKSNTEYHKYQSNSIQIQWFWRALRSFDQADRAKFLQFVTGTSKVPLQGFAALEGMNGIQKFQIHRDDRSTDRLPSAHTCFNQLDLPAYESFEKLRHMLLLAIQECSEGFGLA

## NS(=O)(=O)OC[C@H]1C[C@@H](Nc2ccnc3cc(-c4cccc(SC(F)(F)F)c4)nn23)[C@H](O)[C@@H]1O [TAK243]
[1]; 1 μM TAK243 for 1 h prior to derivative 8
  Effect on cell-based ubiquitination of derivative 8: markedly reduced

## NCc1ccc(CNc2ncnc3c(N4CCN(Cc5ccccc5)CC4)ncnc23)cc1 [derivative 1, N-(4-(aminomethyl)benzyl)−8-(4-benzylpiperazin-1-yl)pyrimido[5,4-d]pyrimidin-4-amine]
[2]
  Compound ubiquitination by HUWE1^HECT (SEC, intact protein MS): efficiently ubiquitinated
[3]
  HUWE1^HECT inhibition (autoubiquitination) by BI8626 derivatives: retained HUWE1^HECT inhibition
[4]; 20 μM, without protein substrate and with MCL1 (Fig. 4c, d)
  Inhibition of HUWE1^FL by BI8626 derivatives: also inhibited

## C#CCCCN1CCN(c2ncnc3c(NCc4cccc(CN)c4)ncnc23)CC1 [derivative 6, N-(3-(aminomethyl)benzyl)−8-(4-(pent-4-yn-1-yl)piperazin-1-yl)pyrimido[5,4-d]pyrimidin-4-amine]
[1]
  Compound ubiquitination in cells (click chemistry, cell lysates): Both mono- and polyubiquitinated forms of derivatives 6 and 8 were detected
[5]; 20 μM compound, 10 min, ATP-dependent
  Compound ubiquitination by HUWE1^FL, click-chemistry fluorescence: fluorescent signals corresponding to the mono- and diubiquitinated forms
[5]; varying concentrations of derivative 6 and MCL1
  MCL1 ubiquitination (immunoblotting) with increasing compound: decreased as the compound modification increased
[4]
  Inhibition by derivatives modified at the piperazine-linked benzyl moiety: preserved inhibition to a similar extent

## C#CCN1CCN(c2ncnc3c(NCc4cccc(CN)c4)ncnc23)CC1 [derivative 8, N-(3-(aminomethyl)benzyl)−8-(4-(prop-2-yn-1-yl)piperazin-1-yl)pyrimido[5,4-d]pyrimidin-4-amine]
[6]; HEK293T HUWE1 KO vs WT
  Compound ubiquitination in HUWE1 knock-out cells: still detected in this context, albeit at slightly reduced levels
[6]; HEK293T HUWE1 KO, transient transfection
  Compound ubiquitination upon overexpression of WT HUWE1 (not catalytically inactive variant): enhances compound ubiquitination
[6]; HEK293T WT vs HUWE1 KO, all species (8-Ub, 8-Ub2, 8-Ubn)
  Share of total compound ubiquitination signal that endogenous HUWE1 accounts for: ≤ 25%
[1]
  Compound ubiquitination in cells (click chemistry, cell lysates): Both mono- and polyubiquitinated forms of derivatives 6 and 8 were detected
[4]
  Inhibition by derivatives modified at the piperazine-linked benzyl moiety: preserved inhibition to a similar extent

## CN1CCN(c2ncnc3c(NCc4cccc(CN)c4)ncnc23)CC1 [derivative 5, N-(3-(aminomethyl)benzyl)−8-(4-methylpiperazin-1-yl)pyrimido[5,4-d]pyrimidin-4-amine]
[4]
  Inhibition by derivatives modified at the piperazine-linked benzyl moiety: maintains considerable inhibition

## NS(=O)(=O)OC[C@@H]1C[C@@H](n2ccc3c(N[C@H]4CCc5ccccc54)ncnc32)C[C@@H]1O [MLN4924]
[1]; 10 μM MLN4924 for 1 h prior to derivative 8
  Effect on cell-based ubiquitination of derivative 8: does not markedly affect derivative 8 ubiquitination

Reference: paper PMC12405493, “Selective ubiquitination of drug-like small molecules by the ubiquitin ligase HUWE1” (Nature Communications, 2025)
